“And” between values parts separate entries of the source, which are not always exact repeats. Equal entries are not always repeated.
Target: T1, DrOTOP1 G130W/A274W (Danio rerio, UniProt Q7ZWK8, A274W/G130W)
T1 construct: A previously generated codon-optimized full-length DrOTOP1[8]; (UniProt: Q7ZWK8) construct; expressed in transfected cells; host or cells: HEK-293 (CRL-1573, ATCC)
T1 sequence (Q7ZWK8 1-586 G130W/A274W): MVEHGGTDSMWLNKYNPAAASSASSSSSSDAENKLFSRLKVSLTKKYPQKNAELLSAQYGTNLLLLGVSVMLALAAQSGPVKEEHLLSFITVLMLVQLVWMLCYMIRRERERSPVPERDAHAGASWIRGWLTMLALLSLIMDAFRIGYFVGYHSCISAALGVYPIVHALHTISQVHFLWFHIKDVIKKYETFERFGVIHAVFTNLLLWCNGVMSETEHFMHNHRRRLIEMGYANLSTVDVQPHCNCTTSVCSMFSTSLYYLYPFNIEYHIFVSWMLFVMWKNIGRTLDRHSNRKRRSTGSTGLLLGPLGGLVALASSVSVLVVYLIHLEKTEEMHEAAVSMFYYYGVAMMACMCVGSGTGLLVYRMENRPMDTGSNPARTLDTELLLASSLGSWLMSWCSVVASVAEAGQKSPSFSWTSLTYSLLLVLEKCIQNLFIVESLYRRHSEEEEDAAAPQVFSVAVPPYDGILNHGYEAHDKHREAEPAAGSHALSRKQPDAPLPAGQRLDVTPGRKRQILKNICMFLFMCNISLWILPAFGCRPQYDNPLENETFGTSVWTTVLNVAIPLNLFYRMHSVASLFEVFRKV
Assay: Whole-cell patch-clamp, inhibition of acid-evoked currents, DrOTOP1 G130W/A274W
Type: cell-based, zebrafish (Danio rerio)
Procedure: Given our limited success in identifying mutations of the central site that disrupt antagonism by C2.2, we tested whether mutations of the central site in a background of G130W (the most impactful outer site mutation) might unmask contributions of this site. Thus, we generated and tested double mutants of G130W with E384A, A274W, and A388W. […] We also measured the dose-dependence of inhibition by C2.2 for both G130W/A388W and G130W/E384A (Fig. 5I, J). […] G130W was tested in parallel to confirm that 100 and 300 μM C2.2 produced dose-dependent inhibition.
HEK-293 cells (CRL-1573, ATCC) were cultured in DMEM (Thermofisher 11995073) containing 10% fetal bovine serum (Life Technology 16000044) and Penicillin-Streptomycin (100 I.U./mL) and (100 µg/mL), respectively. Cells were transfected with WT DrOTOP1 or mutant DrOTOP1 channels in 35 mm petri dishes, with ~ 500 ng DNA and 2 μL TransIT-LT1 transfection reagent (Mirus Bio Corporation, Cat # MIR2300) following the manufacturer’s protocol. […]
Whole-cell patch-clamp recording was performed as previously described[6],[22],[25]. Recordings were made with an Axopatch 200B amplifier, digitized with a Digidata 1322a 16-bit data acquisition system, acquired with pClamp 8.2 and analyzed with Clampfit 10 (Molecular Devices). […]
All data are presented as mean ± SEM unless otherwise noted, and each data point represents an independent replicant. Inhibition of compounds was quantified as ((I2peak-I1)/(I2peak))*100, where I1 is the current immediately before wash-off and I2peak is the maximum recovered current (Supplementary Fig. 2). Hill coefficients were determined by the following equation: Y = Bmax*X^h/(Kd^h + X^h). Absolute IC50 was determined by the following equation: Fifty = (Top + Baseline)/2 Y = Bottom + (Top-Bottom)/(1 + ((Top-Bottom)/(Fifty-Bottom) − 1)*(AbsoluteIC50/X)^HillSlope). pH50 curves (Fig. 6G inset) were determined using the following equation: Y = Bottom + (Top-Bottom)/(1 + (EC/X)^HillSlope) where EC = EC50 control. […]

Row | SMILES | inhibition at 10 µM (10 µM, single cells or mean) [%] | Inhibition of currents (100 µM, single cells) | inhibition at 100 µM (100 µM, single cells) [%]
1 | C=C(C)COc1ccccc1NC(=O)c1nc[nH]c1C [C2.2] | 8.49 | – | –
2 | O=C(/C(=N\O)c1ccccc1)c1ccccc1 [C11, benzil monoxime] | – | 67.5079% and 70.0684% and 78.866% and 74.4022% | 67.5

From publication PMC12549899 (Nature Communications, 2025)
